Experimental data from patent publication US11957695B2, “Methods and compositions targeting glucocorticoid signaling for modulating immune responses” (The Broad Institute, Inc., priority 2018, dated 2024).
“And” between values parts separate entries of the source, which are not always exact repeats. Equal values may be shown once.

Columns and labels:
[1] = target: T1, glucocorticoid receptor (GR) (Homo sapiens, UniProt P04150); settings: cited from earlier work
T1 sequence (P04150 1-777): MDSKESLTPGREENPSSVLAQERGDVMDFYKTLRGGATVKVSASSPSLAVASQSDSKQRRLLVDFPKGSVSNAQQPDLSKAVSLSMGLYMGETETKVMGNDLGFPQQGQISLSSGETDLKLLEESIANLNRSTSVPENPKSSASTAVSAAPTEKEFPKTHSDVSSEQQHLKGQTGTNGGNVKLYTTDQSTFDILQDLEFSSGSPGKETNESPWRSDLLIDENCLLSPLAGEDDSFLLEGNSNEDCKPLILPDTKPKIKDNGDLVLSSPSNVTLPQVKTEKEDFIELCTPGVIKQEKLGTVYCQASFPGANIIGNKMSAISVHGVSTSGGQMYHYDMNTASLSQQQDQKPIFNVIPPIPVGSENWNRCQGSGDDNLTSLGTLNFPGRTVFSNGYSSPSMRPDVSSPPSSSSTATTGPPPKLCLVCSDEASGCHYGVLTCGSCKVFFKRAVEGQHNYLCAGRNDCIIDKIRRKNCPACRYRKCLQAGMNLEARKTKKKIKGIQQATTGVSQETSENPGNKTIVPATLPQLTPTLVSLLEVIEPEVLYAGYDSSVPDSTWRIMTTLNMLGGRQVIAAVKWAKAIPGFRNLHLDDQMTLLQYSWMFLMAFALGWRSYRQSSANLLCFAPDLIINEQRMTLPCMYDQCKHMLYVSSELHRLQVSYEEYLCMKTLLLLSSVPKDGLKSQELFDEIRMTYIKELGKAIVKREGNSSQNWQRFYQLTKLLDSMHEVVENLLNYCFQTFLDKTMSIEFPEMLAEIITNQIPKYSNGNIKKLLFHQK

[2] = in vivo; cited from earlier work
Naïve CD8+ T cells [3] = experiment: RNA-Seq of naïve CD8+ T cells cultured with anti CD3/28 in the presence of Dex (GC), IL-27 or GC+IL-27 (Tables 1, 2A, 2B, 5-7); assay type: cell-based, mouse
Procedure: (§1) Cell culture and treatment with glucocorticoid. CD8^+ T cells from splenocytes and lymph nodes were isolated using CD8 microbeads (Miltenyi). Cells were further stained with antibodies against CD8, CD62L and CD44, and CD8^+CD62L^hiCD44^lo naive cells were sorted by BD FacsAria (BD Biosciences). Sorted cells were cultured for 9 days as described below in DMEM supplemented with 10% (vol/vol) FCS, […], 1 mM sodium pyruvate, nonessential amino acids, L-glutamine, and 100 U/ml penicillin and 100 µg/ml streptomycin.
RNA-Seq data pre-processing. […] Heatmap figures were generated using pheatmap package^53.
Analysis of additive and non-additive effects. To test whether the glucocorticoid and IL-27 signaling pathways had additive or non-additive effects on gene expression, Applicants stimulated naïve CD8^+ T cells in the presence of Dex, IL-27, or Dex+IL-27 in vitro. Applicants tested for non-additive effects between IL-27 and glucocorticoid signaling using a negative binomial generalized linear model in order to account for both estimations of the mean and the dispersion across conditions, where dispersion describes the relationship between the mean and variance. The model was applied to the expression data using ANOVA between a model that takes into account the interaction between IL27 and Dex versus no interaction.

Naïve CD8+ T cells [4] = experiment: Quantitative RT-PCR of Prdm1, Nfil3 and Tcf7 in Ctrl, GC, IL-27 or GC+IL-27 treated cells; assay type: cell-based, mouse
Procedure: as §1
Quantitative PCR. Total RNA was extracted using RNeasy columns (Qiagen). Reverse transcription of mRNA was performed in a thermal cycler (Bio-Rad) using iScript cDNA Synthesis Kit (Bio-Rad). qPCR was performed in the Vii7 Real-Time PCR system (Applied Biosystems) using the primers for Taqman gene expression (Applied Biosystems). Data were normalized to the expression of Actb.

Molecule	Glucocorticoid potency [1]	Terminal half-life [2]	further results
C[C@]12CCC(=O)C=C1CC[C@@H]1[C@@H]2[C@@H](O)C[C@@]2(C)[C@H]1CC[C@]2(O)C(=O)CO [Cortisol (hydrocortisone), Cortisol]	1		
C[C@]12CCC(=O)C=C1CC[C@@H]1[C@@H]2C(=O)C[C@@]2(C)[C@H]1CC[C@]2(O)C(=O)CO [Cortisone]	0.8		
CC(=O)OCC(=O)[C@H]1CC[C@H]2[C@@H]3CCC4=CC(=O)CC[C@]4(C)[C@H]3CC[C@]12C [Deoxycorticosterone acetate]	0		
C[C@H]1C[C@@H]2[C@H]([C@@H](O)C[C@@]3(C)[C@H]2CC[C@]3(O)C(=O)CO)[C@@]2(C)C=CC(=O)C=C12 [Methylprednisolone]		18 to 40 h	
C[C@]12C=CC(=O)C=C1CC[C@@H]1[C@@H]2[C@@H](O)C[C@@]2(C)[C@H]1CC[C@]2(O)C(=O)CO [Prednisolone]	4	16 to 36 h	
C[C@]12C=CC(=O)C=C1CC[C@@H]1[C@@H]2C(=O)C[C@@]2(C)[C@H]1CC[C@]2(O)C(=O)CO [Prednisone]		16 to 36 h	
C[C@]12C=CC(=O)C=C1CC[C@H]1[C@@H]3C[C@@H](O)[C@](O)(C(=O)CO)[C@@]3(C)C[C@H](O)[C@@]12F [Triamcinolone]	5	12 to 36 h	
IL-27: heterodimeric cytokine and a member of the IL-12 family of cytokines that is produced by antigen presenting cells (protein, UniProt Q8NEV9 29-243; Q14213 21-229, looked up) Interleukin-27 subunit alpha: FPRPPGRPQLSLQELRREFTVSLHLARKLLSEVRGQAHRFAESHLPGVNLYLLPLGEQLPDVSLTFQAWRRLSDPERLCFISTTLQPFHALLGGLGTQGRWTNMERMQLWAMRLDLRDLQRHLRFQVLAAGFNLPEEEEEEEEEEEEERKGLLPGALGSALQGPAQVSWPQLLSTYRLLHSLELVLSRAVRELLLLSKAGHSVWPLGFPTLSPQP Interleukin-27 subunit beta: RKGPPAALTLPRVQCRASRYPIAVDCSWTLPPAPNSTSPVSFIATYRLGMAARGHSWPCLQQTPTSTSCTITDVQLFSMAPYVLNVTAVHPWGSSSSFVPFITEHIIKPDPPEGVRLSPLAERQLQVQWEPPGSWPFPEIFSLKYWIRYKRQGAARFHRVGPIEATSFILRAVRPRARYYVQVAAQDLTDYGELSDWSLPATATMSLGK			transcriptional state of stimulated CD8+ T cells (Naïve CD8+ T cells [3]; FIG. 12): transcriptionally distinct; Tcf7 expression levels (Naïve CD8+ T cells [3]; three values per treatment, control cells 9.93, 8.28, 11.45): 5.37 and 7.39 and 5.57; Nupr1 expression levels (Naïve CD8+ T cells [3]; three values per treatment, control cells 12.77, 13.57, 13.47): 11.93 and 21.86 and 19.79; CD28 expression levels (Naïve CD8+ T cells [3]; three values per treatment, control cells 19.54, 18.14, 18.29): 48.93 and 37.2 and 39.84; Lilrb4 expression levels (Naïve CD8+ T cells [3]; three values per treatment, control cells 87.12, 92.82, 96.51): 73.62 and 94.25 and 105.87; Tcf7 expression (qPCR) (Naïve CD8+ T cells [4]): dramatically reduced
